# Values quoted from earlier work as cited in patent US7098029B1, “Product and method for control of obesity” (Metabolic Pharmaceuticals Limited, priority 1999, dated 2006).
# Test system: C57B1/6J (Ob/Ob) mouse
# Settings: administration by injection; cited from earlier work
substance,measurement,value
hGH 177–191: synthetic peptide corresponding to amino acid residues 177–191 of the human growth hormone sequence (LRIVQCRSVEGSCGF),adipose tissue mass,reduce body weight gain and adipose tissue mass
same,body weight gain,reduce body weight gain
